Values after ≈ are worked out from the molar mass of the structure shown.
How the values were obtained:
[1] = test system: ASAU001 (laboratory strain of S. aureus, ATCC29213); assay: MIC broth microdilution, ASAU001; format: cell-based; conditions: Staphylococcus aureus, ATCC29213, read-out: MIC ASAU001
Procedure, shortened: (§1)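 MICs come from broth microdilution in cation-adjusted Mueller-Hinton broth, final inoculum 3×10^5–7×10^5 CFU/mL, 18-24 hours at 35° C. Levofloxacin and QC strains served as assay controls.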

APAE001 (ATCC27853) = assay: MIC broth microdilution, APAE001; format: cell-based, P. aeruginosa; conditions: Pseudomonas aeruginosa, ATCC27853, read-out: MIC APAE001, APAE001 is ATCC27853
Procedure, shortened: as §1

[2] = test system: AECO063 (ATCC25922 bearing an acrAB mutation); assay: microbe, parasite or virus in culture; format: cell-based, E. coli; conditions: Escherichia coli, ATCC25922, read-out: MIC AECO063
Procedure, shortened: as §1

AECO001 HSA AGP = assay: MIC broth microdilution, AECO001 HSA AGP; format: cell-based, E. coli; conditions: Escherichia coli
Procedure, shortened: as §1

[3] = test system: AABA1060 (clinical isolate of Acinetobacter baumannii); assay: MIC broth microdilution, AABA1060; format: cell-based; conditions: Acinetobacter baumannii, read-out: MIC AABA1060
Procedure, shortened: as §1

[4] = test system: APAE006 in the presence of 8 micrograms per milliliter of polymyxin B nonapeptide; format: cell-based, P. aeruginosa; conditions: in the presence of 8 micrograms per milliliter of polymyxin B nonapeptide
Procedure, shortened: (§2)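 Broth microdilution (CLSI); CA-MHB; 3×10^5–7×10^5 CFU/mL final; 2-fold dilutions; 35° C., ambient air, 18-24 h. APAE006 lacks all active efflux pumps.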

AECO001 (ATCC25922) = assay: MIC broth microdilution, AECO001; format: cell-based, E. coli; conditions: Escherichia coli, ATCC25922, read-out: MIC AECO001
Procedure, shortened: as §1

[5] = test system: APAE006 (strain of P. aeruginosa in which all efflux pumps are inactivated); assay: microbe, parasite or virus in culture; format: cell-based; conditions: Pseudomonas aeruginosa, read-out: MIC APAE006, P. aeruginosa, all efflux pumps inactivated
Procedure, shortened: as §2

Row | Structure (SMILES) | MIC [1] | MIC (APAE001 (ATCC27853)) | MIC [2] | MIC (AECO001 HSA AGP) | MIC [3] | MIC APAE006 + PMBN [4] | MIC (AECO001 (ATCC25922)) | MIC [5]
1 | C[C@@H](N)[C@H](NC(=O)c1ccc(C#Cc2ccc(CNC3CC3)cc2)cc1)C(=O)NO [Example 115-2] | > 64 µg/mL | < 2 µg/mL | < 2 µg/mL | 2 to 16 µg/mL (≈ 4.92 to 39.4 µM) | 2 to 16 µg/mL (≈ 4.92 to 39.4 µM) | A (MIC's of 2.0 μg/mL or less = A) | < 2 µg/mL | < 2 µg/mL
2 | C[C@@H](N)[C@H](NC(=O)c1ccc(C#Cc2ccc(CN3CCC(F)(F)CC3)cc2)cc1)C(=O)NO [Example 115-3] | > 64 µg/mL | 2 to 16 µg/mL (≈ 4.25 to 34 µM) | < 2 µg/mL | < 2 µg/mL | 2 to 16 µg/mL (≈ 4.25 to 34 µM) | A (MIC's of 2.0 μg/mL or less = A) | < 2 µg/mL | < 2 µg/mL
3 | C[C@@H](N)[C@H](NC(=O)c1ccc(C#Cc2ccc(CN3CCN(C)CC3)cc2)cc1)C(=O)NO [Example 115-4] | > 64 µg/mL | < 2 µg/mL | < 2 µg/mL | 16 to 64 µg/mL (≈ 35.6 to 142 µM) | 16 to 64 µg/mL (≈ 35.6 to 142 µM) | A (MIC's of 2.0 μg/mL or less = A) | 2 to 16 µg/mL (≈ 4.45 to 35.6 µM) | < 2 µg/mL
4 | C[C@@H](N)[C@H](NC(=O)c1ccc(C#Cc2ccc(CN(C)Cc3cccnc3)cc2)cc1)C(=O)NO [Example 115-5] | > 64 µg/mL | 2 to 16 µg/mL (≈ 4.24 to 33.9 µM) | < 2 µg/mL | 2 to 16 µg/mL (≈ 4.24 to 33.9 µM) | 2 to 16 µg/mL (≈ 4.24 to 33.9 µM) | A (MIC's of 2.0 μg/mL or less = A) | < 2 µg/mL | < 2 µg/mL
5 | C[C@@H](N)[C@H](NC(=O)c1ccc(C#Cc2ccc(CN3CCC(O)C3)cc2)cc1)C(=O)NO (some centres unmarked) [Example 115-6] | > 64 µg/mL | < 2 µg/mL | < 2 µg/mL | 2 to 16 µg/mL (≈ 4.58 to 36.7 µM) | 16 to 64 µg/mL (≈ 36.7 to 147 µM) | A (MIC's of 2.0 μg/mL or less = A) | 2 to 16 µg/mL (≈ 4.58 to 36.7 µM) | < 2 µg/mL
6 | C[C@@H](N)[C@H](NC(=O)c1ccc(C#Cc2ccc(CN3CCN(S(C)(=O)=O)CC3)cc2)cc1)C(=O)NO [Example 115-7] | > 64 µg/mL | 2 to 16 µg/mL (≈ 3.89 to 31.2 µM) | < 2 µg/mL | 2 to 16 µg/mL (≈ 3.89 to 31.2 µM) | 2 to 16 µg/mL (≈ 3.89 to 31.2 µM) | A (MIC's of 2.0 μg/mL or less = A) | < 2 µg/mL | < 2 µg/mL
7 | COC1CCN(Cc2ccc(C#Cc3ccc(C(=O)N[C@H](C(=O)NO)[C@@H](C)N)cc3)cc2)CC1 [Example 115-8] | > 64 µg/mL | < 2 µg/mL | < 2 µg/mL | 2 to 16 µg/mL (≈ 4.31 to 34.4 µM) | 2 to 16 µg/mL (≈ 4.31 to 34.4 µM) | A (MIC's of 2.0 μg/mL or less = A) | < 2 µg/mL | < 2 µg/mL
8 | NCC(=O)NCc1ccc(C#Cc2ccc(C(=O)N[C@@H](CN)C(=O)NO)cc2)cc1 [Example 116-1, (S)—N-(3-amino-1-(hydroxyamino)-1-oxopropan-2-yl)-4-((4-((2-aminoacetamido)methyl)phenyl)ethynyl)benzamide] | 16 to 64 µg/mL (≈ 39.1 to 156 µM) | 2 to 16 µg/mL (≈ 4.88 to 39.1 µM) | 16 to 64 µg/mL (≈ 39.1 to 156 µM) | 16 to 64 µg/mL (≈ 39.1 to 156 µM) | 16 to 64 µg/mL (≈ 39.1 to 156 µM) | A (MIC's of 2.0 μg/mL or less = A) | 16 to 64 µg/mL (≈ 39.1 to 156 µM) | < 2 µg/mL
9 | CNC(=O)[C@@H](NC(=O)c1ccc(C#Cc2ccc(CN3CCOCC3)cc2)cc1)[C@@H](C)N [Example 117-1, N-((1S,2R)-2-Amino-1-methylcarbamoyl-propyl)-4-(4-morpholin-4-ylmethyl-phenylethynyl)-benzamide] | > 64 µg/mL | > 64 µg/mL | > 64 µg/mL | > 64 µg/mL | > 64 µg/mL | D (MIC's of greater than 64.0 μg/mL = D) | > 64 µg/mL | > 64 µg/mL
10 | C[C@@H](N)[C@H](NC(=O)c1ccc(C#Cc2ccc(CN3CCOCC3)cc2)cc1)C(=O)O [Example 117-2, (2S,3R)-3-Amino-2-[4-(4-morpholin-4-ylmethyl-phenylethynyl)-benzoylamino]-butyric acid] | > 64 µg/mL | > 64 µg/mL | > 64 µg/mL | > 64 µg/mL | > 64 µg/mL | C (MIC's of greater than 16.0 μg/mL to 64.0 μg/mL = C) | > 64 µg/mL | > 64 µg/mL

Source: patent publication US9617256B2 (priority 2007, dated 2017)
